Patent publication US20020115642A1, “Beta-lactam antibiotics” (priority 2000, published 2002)
Values after ≈ are worked out from the molar mass of the structure shown. Where two headings read alike, the source gives them in different places.

What was measured:
P. aeruginosa = assay: Susceptibility testing (MIC, modified NCCLS method); type: cell-based, Pseudomonas aeruginosa
Description: (§1) The NCCLS (National Committee for Clinical Laboratory Standards) method to determine MIC's of antimicrobial compounds was modified for high-throughput screening. All stocks of tested compounds were prepared in either water or in dimethylsulfoxide (DMSO), depending on the solubility. […] Briefly 20 2-fold serial dilutions of testing compounds from the highest concentration were made in a 384-well microtiter plate. Each well was inoculated with testing bacteria in broth to a final concentration of approximately 1-1.5×10^6 cells/ml. Bacterial growth was determined by the increase of optical density at 600 nm using a microplate reader (Tecan SpectraFluor Plus).

K. pneumoniae = assay: as above; type: cell-based, Klebsiella pneumoniae; details: K. pneumoniae ATCC 700721
Description: as §1

E. coli N = assay: Inhibition of bacterial growth (IC50, OD600); type: cell-based; details: Cell N
Description: (§2) Compounds of the invention were tested for their ability to inhibit the growth of β-lactam sensitive and resistant bacteria by contacting samples of such cells with various dilutions of the compositions, incubating the cells at 37° C. in the presence of these compositions and then measuring the number of viable cells present in each sample.
(§3) Two compounds of the invention were tested, Compound (9) and Compound (1l). Incubation of bacterial cells was performed for two time periods, 10 hours and 20 hours. Four E. coli strains were used for the test. These strains were all derived from the strain NovaBlue (NovaGen Inc., Madison, Wis.). E. coli N is a normal, β-lactam sensitive strain. E coli R(Tem1) is a β-lactam resistant strain with a β-lactamase gene on a plasmid. E. coli C(Tem4O-15) is a β-lactam resistant strain with a β-lactam inhibitor resistant β-lactamase gene, and E. coli C(Tem3 1-27) is β-lactam resistant strain with an alternative β-lactam inhibitor resistant β-lactamase gene.
(§4) The various E. coli strains were each treated with dilutions of the compounds of the invention. […] The number of viable cells at each time point was determined by measuring the OD600 of each cell sample.
(§5) After measuring the number of viable cells present, the IC50 for each sample was determined. […] In addition, both compounds were effective at inhibiting the growth of both antibiotic sensitive and resistant bacterial cells.

E. coli C(Tem4O-15) = assay: Inhibition of bacterial growth (IC50, OD600); type: cell-based; details: for IC50: Cell C (Tem40-15)
Description: as §2, §3, §4, §5

E. coli C(Tem3 1-27) = assay: Inhibition of bacterial growth (IC50, OD600); type: cell-based; details: for IC50: Cell C (Tem31-27)
Description: as §2, §3, §4, §5

E coli R(Tem1) = assay: Inhibition of bacterial growth (IC50, OD600); type: cell-based; details: for IC50 ratio N/R: N versus R (Tem1); for IC50: Cell R (Tem1)
Description: as §2, §3, §4, §5

Staphylococcus aureus = assay: Susceptibility testing (MIC, modified NCCLS method); type: cell-based
Description: as §1

[1] = tested on: S. aureus clinical isolates; assay: MIC by agar dilution, recent clinical isolates (UCSD Medical Center); type: cell-based, Staphylococcus aureus; details: MSSA (14)
Description: Growth of all 14 isolates of MSSA was inhibited by Compound (9) at the lowest tested concentration (0.08 μg/ml) (See Table 6, below).

[2] = tested on: S. aureus clinical isolates; assay: as above; type: cell-based, Staphylococcus aureus; details: MRSA (17)
S. epidermidis = assay: Susceptibility testing (MIC, modified NCCLS method); type: cell-based, Staphylococcus epidermidis; details: Staphylococcus epidermidis, S. epidermidis (5); read-out: GM* MIC (geometric mean)
Description: as §1

E. faecalis = assay: as above; type: cell-based, Enterococcus faecalis; details: E. faecalis (7)
Description: as §1

[3] = read-out: IC50 20 hours, 20 hours
[4] = read-out: IC50 10 hours, 10 hours

3-(2-(2,4-Dichlorophenoxy)-5-chlorophenoxy)methyl-7-(2-thienylacetamido)-1-oxo-3-cephem-4-carboxylate [Compound 11]
MIC (P. aeruginosa; P. aeruginosa ATCC 21726): >64 mg/L | MIC (P. aeruginosa; P. aeruginosa ATCC 29872): >64 mg/L | MIC (K. pneumoniae): 4 mg/L | IC50 (E. coli N; read-out: IC50 10 hours, 10 hours, 37° C.): 7.48 µM | IC50 (E. coli N; [3]): 4.24 µM | IC50 ratio (C/R or N/C) (E. coli C(Tem4O-15); 10 hours, line of C (Tem40-15)): N/C = 20x | IC50 ratio (given C/R or N/R) (E. coli C(Tem4O-15); 20 hours, line of C (Tem40-15)): N/R = 6.5x | IC50 (E. coli C(Tem4O-15); [4]): 0.369 µM | IC50 (E. coli C(Tem4O-15); [3]): 0.653 µM | IC50 ratio (C/R or N/C) (E. coli C(Tem3 1-27); 10 hours, line of C (Tem31-27)): N/C = 6.7x | IC50 ratio (given C/R or N/R) (E. coli C(Tem3 1-27); 20 hours, line of C (Tem31-27)): N/R = 2.9x | IC50 (E. coli C(Tem3 1-27); [4]): 1.11 µM | IC50 (E. coli C(Tem3 1-27); [3]): 1.48 µM | IC50 ratio N/R (E coli R(Tem1); 10 hours): N/R = 1388x | IC50 ratio N/R (E coli R(Tem1); 20 hours): N/R = 120x | IC50 (E coli R(Tem1); [4]): 0.00539 µM | IC50 (E coli R(Tem1); [3]): 0.0353 µM | MIC (Staphylococcus aureus; S. aureus ATCC 700260): 0.0078 mg/L | MIC (Staphylococcus aureus; S. aureus ATCC 700699): 1 mg/L

Cc1nnc(SCC2=C(C(=O)O)N3C(=O)[C@@H](NC(=O)Cn4cnnn4)[C@H]3SC2)s1 [Cefazolin, reference compound]
MIC range [1]: 0.08 to 0.6 mg/L | MIC50 ([1]; Staphylococcus aureus): 0.16 mg/L (≈ 0.352 µM) | MIC90 ([1]; Staphylococcus aureus): 0.3 mg/L (≈ 0.66 µM) | MIC range [2]: 5 mg/L (≈ 11 µM) | MIC50 ([2]; Staphylococcus aureus): > 5 mg/L | MIC90 ([2]; Staphylococcus aureus): > 5 mg/L

Cc1onc(-c2ccccc2)c1C(=O)N[C@@H]1C(=O)N2[C@@H]1SC(C)(C)[C@@H]2C(=O)O [Oxacillin, reference compound]
MIC (S. epidermidis): > 7.87 mg/L | MIC (Staphylococcus aureus; Staphylococcus aureus, ATCC11632, ATCC 11632, methicillin-sensitive, β-lactamase Neg./Pos., read-out: MIC): 0.25 mg/L (≈ 0.623 µM) | MIC (Staphylococcus aureus; Staphylococcus aureus, ATCC13301, ATCC 13301, methicillin-sensitive, β-lactamase Positive, read-out: MIC): 0.25 mg/L (≈ 0.623 µM) | MIC (Staphylococcus aureus; Staphylococcus aureus, ATCC14154, ATCC 14154, methicillin-sensitive, β-lactamase Positive, read-out: MIC): 0.5 mg/L (≈ 1.25 µM) | MIC (Staphylococcus aureus; Staphylococcus aureus, ATCC33591, ATCC 33591, methicillin-resistant, β-lactamase Positive, read-out: MIC): 8 mg/L (≈ 19.9 µM) | MIC (Staphylococcus aureus; Staphylococcus aureus, ATCC33592, ATCC 33592, methicillin-sensitive, β-lactamase Positive, read-out: MIC): 2 mg/L (≈ 4.98 µM) | MIC (Staphylococcus aureus; Staphylococcus aureus, ATCC33593, ATCC 33593, methicillin-resistant, β-lactamase Positive, read-out: MIC): 8 mg/L (≈ 19.9 µM) | MIC (Staphylococcus aureus; Staphylococcus aureus, ATCC33594, ATCC 33594, methicillin-sensitive, β-lactamase Positive, read-out: MIC): 0.25 mg/L (≈ 0.623 µM) | MIC (Staphylococcus aureus; Staphylococcus aureus, ATCC43300, ATCC 43300, methicillin-sensitive, β-lactamase Neg./Pos., read-out: MIC): 2 mg/L (≈ 4.98 µM) | MIC (Staphylococcus aureus; Staphylococcus aureus, ATCC700260, ATCC 700260, methicillin-sensitive, β-lactamase Positive, read-out: MIC): 0.5 mg/L (≈ 1.25 µM) | MIC (Staphylococcus aureus; Staphylococcus aureus, ATCC700698, ATCC 700698, methicillin-resistant, β-lactamase Negative, read-out: MIC): > 32 mg/L | MIC (Staphylococcus aureus; Staphylococcus aureus, ATCC700699, ATCC 700699, methicillin-resistant, β-lactamase Negative, read-out: MIC): > 32 mg/L | MIC (Staphylococcus aureus; Staphylococcus aureus, ATCC700787, ATCC 700787, methicillin-resistant, β-lactamase Positive, read-out: MIC): > 32 mg/L | MIC (Staphylococcus aureus; Staphylococcus aureus, ATCC700788, ATCC 700788, methicillin-resistant, β-lactamase Positive, read-out: MIC): > 32 mg/L | MIC (Staphylococcus aureus; Staphylococcus aureus, ATCC700789, ATCC 700789, methicillin-resistant, β-lactamase Positive, read-out: MIC): 32 mg/L (≈ 79.7 µM) | MIC (Staphylococcus aureus; Staphylococcus aureus, MRSA, MRSA tested (7), read-out: Geometric mean of MIC): > 21.5 mg/L | MIC (Staphylococcus aureus; Staphylococcus aureus, MSSA, MSSA tested (7), read-out: Geometric mean of MIC): 0.55 mg/L (≈ 1.37 µM) | MIC (Staphylococcus aureus; Staphylococcus aureus, S. aureus (14), read-out: Geometric mean of MIC): > 3.45 mg/L | MIC (Staphylococcus aureus; Staphylococcus aureus, S. aureus β-lactamase negative (2), read-out: Geometric mean of MIC): > 32 mg/L | MIC (Staphylococcus aureus; Staphylococcus aureus, S. aureus β-lactamase positive (12), read-out: Geometric mean of MIC): 2.34 mg/L (≈ 5.83 µM) | MIC range (E. faecalis): >11 mg/L | MIC (E. faecalis; Enterococcus faecalis, read-out: GM* MIC (geometric mean)): > 11 mg/L
